Experimental data: patent US20140018416A1, “THERAPEUTIC AGENT FOR CORNEAL SENSORY NERVE DAMAGE CONTAINING SEMAPHORIN INHIBITOR AS ACTIVE INGREDIENT” (DAINIPPON SUMITOMO PHARMA CO., LTD, priority 2011, published 2014)
Read-outs that look alike come from different tables or passages of the source. Each block holds one molecule with its values, some of them ahead of it.

Assays:
[1] = Solubility (physicochemical properties of isolated compounds); details: water, hexane, methanol, DMSO
[2] = tested on: corneal sensory nerve in corneal graft; assay: Mouse keratoplasty model: regeneration of nerve fibers in corneal graft, corneal sensitivity, corneal vascularization; type: in vivo; details: vs control group
Source text: In this experiment, there were used genetically modified mice (P0-Cre/Floxed-EGFP mouse), in which corneal parenchymal cells, corneal endothelial cells, and nerves expressed a type of fluorescent protein, Green Fluorescent Protein (GFP), in the cornea. Using these mice, corneal sensory nerve fibers traveling in the cornea can easily be observed by removing a layer of corneal endothelial cells.
The cornea derived from a syngeneic wild-type mouse was transplanted into each of the above-mentioned mice. Thereafter, 50 ul of vinaxanthone (which had been dissolved in Rinderon (1 mg/ml betamethasone sodium phosphate injection solution) to a concentration of 0.1 mg/mL) was administered to the mice via subconjunctival injection immediately after completion of the operation and then, every two days in a total of 11 times. Only a solvent containing no drugs was administered in the same amount as described above to a control group. The removal of the suture was conducted one week after completion of the operation. Three weeks after completion of the operation, corneal sensitivity was evaluated, the mice were then subjected to euthanasia, and eyeballs were then excised. A comparison was made regarding the regeneration of nerve fibers in the corneal graft. Corneal sensitivity was evaluated by measuring corneal sensitivity in the center of the corneal graft every week after completion of the operation, using a Cochet-Bonnet corneal esthesiometer. […]
Thereafter, a total of the lengths thereof were measured, and a comparison was then made between the vinaxanthone administration group and the control group.

[3] = Change over time in stability in PBS (phosphate buffer); type: physicochemical; details: 100 μg/ml in PBS, 37° C.
Experimental: Vinaxanthone (SPF-3059-5) and SPF-3059-1 were each dissolved in PBS (Dulbecco's PBS(-)) to a concentration of 100 μg/ml. The obtained solutions were preserved at 37° C., and the amount of the agent remaining in the solution was quantified by HPLC in individual time points from initiation of the preservation until 4 weeks after initiation of the preservation, so that a change over time in the remaining percentages was examined. The same HPLC conditions as those of Example 10 were applied.

[4] = Retention of vinaxanthone in corneal tissues after eye drops administration; type: in vivo; details: rabbit
Experimental: Rabbits (Kbs: JW, healthy, male, body weight: 2.00 to 2.49 kg) were each administered with 50 μL of a PBS solution (0.12 M phosphate buffer (pH 7.4)) of vinaxanthone (0.5, 1.5 and 5.0 mg/mL) via eye drops administration onto the cornea of the right eye, and their eyes were then closed for 30 seconds. Thereafter, 0.5, 2, and 6 hours after completion of the administration, the rabbits were subjected to euthanasia, and the excised eyeballs were then washed with a normal saline. Thereafter, the cornea was collected from each eyeball. The cornea was homogenized, and vinaxanthone was then extracted therefrom. A change over time in the content and concentration of vinaxanthone in the corneal tissues was examined using HPLC.

[5] = target: T1, mouse semaphorin 3A (Sema3A) (Mus musculus, UniProt O08665); assay: Inhibitory activity on collapse activity of Sema3A (growth cone retraction, chicken embryo dorsal root ganglion); type: cell-based
T1 sequence (O08665 21-772): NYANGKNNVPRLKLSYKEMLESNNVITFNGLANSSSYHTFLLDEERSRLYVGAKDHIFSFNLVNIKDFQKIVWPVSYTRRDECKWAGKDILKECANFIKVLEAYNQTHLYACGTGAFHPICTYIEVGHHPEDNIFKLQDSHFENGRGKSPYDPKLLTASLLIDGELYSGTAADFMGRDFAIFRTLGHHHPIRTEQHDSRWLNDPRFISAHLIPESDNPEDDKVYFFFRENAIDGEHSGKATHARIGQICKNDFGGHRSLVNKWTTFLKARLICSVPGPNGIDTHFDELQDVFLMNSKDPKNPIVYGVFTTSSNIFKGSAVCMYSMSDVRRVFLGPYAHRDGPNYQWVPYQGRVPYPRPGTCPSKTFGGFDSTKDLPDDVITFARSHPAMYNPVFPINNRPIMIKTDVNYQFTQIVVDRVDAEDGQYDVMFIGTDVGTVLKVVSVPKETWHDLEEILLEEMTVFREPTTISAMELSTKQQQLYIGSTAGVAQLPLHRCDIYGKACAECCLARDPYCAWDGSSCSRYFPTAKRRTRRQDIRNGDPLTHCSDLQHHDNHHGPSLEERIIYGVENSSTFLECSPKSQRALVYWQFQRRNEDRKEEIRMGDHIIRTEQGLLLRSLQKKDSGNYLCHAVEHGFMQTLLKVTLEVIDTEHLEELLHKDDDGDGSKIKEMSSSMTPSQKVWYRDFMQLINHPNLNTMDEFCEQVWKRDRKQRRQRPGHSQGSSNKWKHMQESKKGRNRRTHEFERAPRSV
Experimental: A polylysine-coated 96-well plate (Sumitomo Bakelite Co., Ltd.) was further coated with laminin (20 μg/ml laminin, room temperature, 1 hour). Then, 100 μl of a medium (F12 medium containing 10% fetal bovine serum, 20 ng/ml NGF, 100 units/ml penicillin, and 100 μg/ml streptomycin) was added to each well. Thereafter, a dorsal root ganglion excised from a 7-day-old chicken embryo was inoculated into the resulting well, and the obtained mixture was then cultured under conditions consisting of 16 to 20 hours, 5% CO2 and 37° C. Thereafter, the compounds described in Example 3 above were each added in different concentrations to the resulting culture, and the obtained mixture was then cultured for 1 hour. Thereafter, 2 units/ml mouse semaphorin 3A (Sema3A) was added to the culture, and the obtained mixture was further cultured for 1 hour. One hour after initiation of the culture, glutaraldehyde was added to the culture, such that it promptly could reach a final concentration of 1%. Then, the obtained mixture was then left at a room temperature for 15 minutes to fix a tissue section. Thereafter, the percentage of the retracted growth cone was measured under a microscope. A well, to which no Sema3A had been added, was used as a control. The percentage of growth cone retraction in a negative control group (to which neither the compound nor Sema3A was added) was defined as (A)%; the percentage of growth cone retraction in a positive control group (to which the compound had not been added but Sema3A was added) was defined as (B)%; and the percentage of growth cone retraction in a test group (to which both the compound and Sema3A were added) was defined as (C)%. The concentration of each compound that held the formula C=(A+B)/2 was defined as an IC50 value.

Compound: CC(=O)c1cc2c(=O)c3c(C(=O)O)c(O)c(O)cc3oc2c(C(C)=O)c1-c1coc2cc(O)cc(C(=O)O)c2c1=O [SPF-3059-12]
Solubility [1]: Insoluble in water and hexane, soluble in methanol and DMSO

Vascularization into the corneal graft (total length of CD31-positive newly formed blood vessels) ([2]; three weeks after operation, no significant difference): not promoted | Time for which the compound was stable in PBS [3]: ≥ 4 weeks | Remaining percentage in PBS ([3]; until 4 weeks after initiation of the preservation, HPLC): ≥ 96% | concentration at 6 h ([4]; male, Kbs: JW, cornea, topical, 5 mg/mL (50 μL eye drop), 50 μL eye drops of 5.0 mg/mL PBS solution, 6 hours after administration, read-out: Concentration of vinaxanthone retained in the cornea): > 75 ng/mL | Time for which the concentration in the cornea considered necessary for the expression of drug effects was retained ([4]; eye drop of 0.5 mg/mL solution): 0.5 h | IC50 ([5]; as quoted in Example 2, converted from ng/mL, read-out: IC50 value obtained by the in vitro experiment (inhibitory activity on the collapse activity of Sema3A in Example 4) (converted)): 0.13 µM | IC50 ([5]; as quoted in Example 2, read-out: IC50 value obtained by the in vitro experiment (inhibitory activity on the collapse activity of Sema3A in Example 4) (converted)): 0.13 µM
Compound: CC(=O)c1cc2c(=O)c3c(C(=O)O)c(O)c(O)cc3oc2c(C(C)=O)c1-c1coc2cc(O)c(O)c(C(=O)O)c2c1=O [SPF-3059-5, vinaxanthone]
Regeneration of nerve fibers in the corneal graft (total length of regenerated fibers) ([2]; 50 ul of 0.1 mg/mL subconjunctival injection, every two days, 11 times, three weeks after operation, p<0.01): promoted | Corneal sensitivity in the center of the corneal graft (Cochet-Bonnet corneal esthesiometer, blink reflection) ([2]; three weeks after completion of the operation, p<0.01): improved | Transfer into the corneal tissues ([4]; eye drops 0.5, 1.5 and 5.0 mg/mL): transferred into the corneal tissues in an applied concentration/dose dependent manner

Compound: CC(=O)c1cc2c(=O)c3c(C(=O)O)c(O)c(O)cc3oc2c(C(C)=O)c1-c1coc2cc(O)c(O)cc2c1=O [SPF-3059-24]
Solubility [1]: Insoluble in water and hexane, soluble in methanol and DMSO

Time until decomposed in an almost total amount in PBS [3]: approximately 1 week
Compound: CC(=O)c1c(C)c(C(=O)C2COc3cc(O)c(O)c(C(=O)O)c3C2=O)cc2c(=O)c3c(C(=O)O)c(O)c(O)cc3oc12 (centres unmarked) [SPF-3059-1, reference compound]

Compound: CC(=O)c1cc2c(=O)c3cc(O)c(O)cc3oc2c(C(C)=O)c1-c1coc2cc(O)c(O)cc2c1=O [SPF-3059-26]
Solubility [1]: Insoluble in water and hexane, soluble in methanol and DMSO

Compound: CC(=O)c1cc2c(=O)c3c(C(=O)O)cc(O)cc3oc2c(C(C)=O)c1-c1coc2cc(O)c(O)cc2c1=O [SPF-3059-25]
Solubility [1]: Insoluble in water and hexane, soluble in methanol and DMSO

IC50 ([5]; 2 units/ml mouse Sema3A, 7-day-old chicken embryo dorsal root ganglion, read-out: IC50 (inhibition of Sema3A-induced growth cone retraction)): < 0.188 µM
Compound: CC(=O)c1cc2c(=O)c3cc(O)c(O)cc3oc2c(C(C)=O)c1-c1coc2cc(O)c(O)c(C(=O)O)c2c1=O [SPF-3059-2]

Compound: CC(=O)c1cc2c(=O)c3c(C(=O)O)cc(O)cc3oc2c(C(C)=O)c1-c1coc2cc(O)c(O)c(C(=O)O)c2c1=O [SPF-3059-4]
Solubility [1]: Insoluble in water and hexane, soluble in methanol and DMSO
